# Earlier results as cited in patent US7351424B2, “Enhanced purity trans-lutein-ester compositions and methods of making same” (Bio Lut S.A. de C.V., priority 2004, dated 2008).
# Settings: human, in vivo
substance,measurement,value
lutein esters,bioavailability,even better than free lutein
